# Experimental data published in patent US20120095012A1, “TOLUIDINE SULFONAMIDES AND THEIR USE” (Elara Pharmaceuticals GmbH, priority 2008, published 2012).
# Tests used:
# [1] = biological target: T1, tubulin (from porcine brain) (Sus scrofa, UniProt P02550+P02554); test: Inhibition of in vitro tubulin polymerization (OD 340 nm, 90 min); format: biochemical; settings: final absorbance at 90 min vs vehicle control, read-out: tubulin inhib. (at 10 μM)
# T1 construct: prepared in-house from porcine brain using a standard procedure involving cycles of polymerization/de-polymerization; from tissue; host or cells: porcine brain
# T1 sequence (P02550 whole entry): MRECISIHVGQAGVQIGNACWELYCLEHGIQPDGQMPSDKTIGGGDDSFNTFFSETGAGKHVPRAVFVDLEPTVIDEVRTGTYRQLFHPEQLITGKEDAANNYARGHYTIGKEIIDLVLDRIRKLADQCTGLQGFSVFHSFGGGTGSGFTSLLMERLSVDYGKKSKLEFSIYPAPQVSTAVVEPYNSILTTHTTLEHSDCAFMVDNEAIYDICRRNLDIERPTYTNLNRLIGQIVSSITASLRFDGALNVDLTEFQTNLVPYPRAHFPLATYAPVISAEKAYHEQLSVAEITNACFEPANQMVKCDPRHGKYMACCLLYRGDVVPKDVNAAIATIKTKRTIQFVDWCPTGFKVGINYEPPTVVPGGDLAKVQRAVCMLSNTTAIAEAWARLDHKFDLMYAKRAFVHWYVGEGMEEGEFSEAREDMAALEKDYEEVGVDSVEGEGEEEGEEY
# T1 sequence (P02554 whole entry): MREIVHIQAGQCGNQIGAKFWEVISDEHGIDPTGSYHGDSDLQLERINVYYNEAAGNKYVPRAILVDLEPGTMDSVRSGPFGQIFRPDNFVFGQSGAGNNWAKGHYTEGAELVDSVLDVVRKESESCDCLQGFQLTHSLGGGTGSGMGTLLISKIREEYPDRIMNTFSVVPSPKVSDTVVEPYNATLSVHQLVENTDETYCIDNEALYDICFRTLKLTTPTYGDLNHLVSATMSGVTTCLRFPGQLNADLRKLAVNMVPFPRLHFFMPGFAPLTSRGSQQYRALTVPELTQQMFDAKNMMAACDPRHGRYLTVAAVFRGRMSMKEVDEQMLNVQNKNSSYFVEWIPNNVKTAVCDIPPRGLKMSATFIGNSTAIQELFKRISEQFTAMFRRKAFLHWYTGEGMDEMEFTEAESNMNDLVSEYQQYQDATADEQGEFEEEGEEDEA
# Procedure: To assess the degree of inhibition of in vitro tubulin polymerization, a tubulin solution (prepared in-house from porcine brain using a standard procedure involving cycles of polymerization/de-polymerization, (see Castoldi & Popov (2003) Protein Expr. Purif. 32(1): 83-88), was incubated with varying concentrations of compounds under polymerizing conditions and kinetic experiments performed to determine the amount of polymerization (as measured by changes in OD at 340 nm) taking place over a 90 min period.
# Compound solutions were diluted in double-distilled water to yield final 10× solutions containing 5% DMSO. 5 μl solutions were then added to the wells on a 384-well clear-bottom plate (Corning #3711, Corning Inc.) in preparation for the addition of tubulin. The tubulin solution (19.6 mg/ml, in 80 mM K-PIPES [pH 6.8], 1 mM MgCl2, 1 mM EGTA) was re-suspended to a final concentration of 4 mg/ml with ice cold G-PEM buffer (80 mM PIPES [pH 6.8], 2 mM MgCl2, 0.5 mM EGTA, 10% glycerol, 1 mM GTP) and maintained on ice for at least 1 min. 50 μl was then added to the pre-dispensed compound solutions, the plate orbital shaken on a medium setting for 5s, and the first measurement begun immediately.
# Experiments were carried out on a Safire^2 ™ monochromator (Tecan) preset to a stable temperature of 37° C.; the degree of polymerization was determined by measuring the absorbance of the solutions at 340 nm every minute over the 90 min cycle. Reported inhibition values were based on the final absorbance at 90 min and calculated with reference to a vehicle control (0.5% DMSO) using the minimum and maximum signals obtained for this sample.
# [2] = test system: HIF mediated transcription; test: Inhibition of activation of HIF mediated transcription under hypoxic conditions (CellSensor HRE-bla HCT-116 reporter, DFO-induced); format: cell-based; settings: Homo sapiens; HRE-bla HCT-116 reporter cells, deferoxamine-induced hypoxia, 24 h
# Procedure: Inhibition of an activated HIF signaling response under chemically-induced hypoxic conditions due to compound treatment was determined using the CellSensor® […] HCT-116 stably transfected reporter cell line from Invitrogen according to the manufacturer's instructions. HIF is a transcriptional factor composed of the constitutively expressed HIF 1β subunit and one of three HIFα subunits (HIF1α, HIF2α, HIF3α). This assay is responsive towards HIFα activity in general. In one example, HIF-1, when stabilized by hypoxic conditions, upregulates several genes to promote cell survival in low-oxygen conditions. These include glycolysis enzymes, which allow ATP synthesis in an oxygen-independent manner, and vascular endothelial growth factor (VEGF), which promotes angiogenesis. HIF-1 acts by binding to HIF-responsive elements (HREs) in promoters that generally contain the sequence NCGTG.
# Cells were maintained as described previously and seeded into 384-well, clear-bottom plates (Corning 3712) at 15000 cells/well in 32 μl assay medium (Opti-MEM [Invitrogen], 0.5% FBS, 100 U/ml penicillin, 100 μg/ml streptomycin, 0.1 mM non-essential amino acids [NEAA], 1 mM sodium pyruvate, 5 mM HEPES [pH 7.3]). Following a 2 h incubation period, compounds (4 μl) were subsequently added to the cells at 10× concentrations in 5% DMSO and incubated under normal conditions for 30 min. To induce hypoxic conditions, 4 μl of a 2 mM deferoxamine (DFO) solution was added to the cells followed by 24 h incubation under standard assay conditions (as described). Control wells included wells containing only medium (no cells) and wells treated with 0.5% DMSO instead of compound.
# Prior to the readout, the Substrate Loading Solution was prepared as described in the manufacturer's protocol and 10 μl added to each well. Following a further 2 h incubation period at room temperature and in the dark, fluorescence was measured at two wavelengths (blue channel: ex. 409 nm, em. 460 nm; green channel: ex. 409 nm, em. 530 nm) on a PerkinElmer Envision HTS. For the analysis, the average signal of the cell-free wells at 460 nm and 530 nm was first subtracted from the blue and green channel data, respectively. The blue/green emission ratios were then calculated for each well, dividing the background-corrected blue emission values by the background-corrected green emission values. IC50 values were determined from these ratios using GraphPad Prism (Prism 5, GraphPad software, Inc.).
# [3] = test system: MCF-7 human breast adenocarcinoma cells; HRE-bla HCT116 cell line (colorectal carcinoma); test: Cell proliferation assay (ATPlite luminescence); format: cell-based; settings: Homo sapiens, ATPlite readout, cell line not given
# Procedure: MCF-7 human breast adenocarcinoma cells were obtained from ATCC (LGC Promochem). The CellSensor® HRE-bla HCT116 cell line (colorectal carcinoma) was obtained from Invitrogen.
# Cells were grown under humidified 95% air, 5% CO2 at 37° C. in Dulbecco's modified Eagle's medium (DMEM: MCF-7) or McCoy's 5A medium (HRE-bla HCT116) supplemented with 10% fetal bovine serum (FBS), 100 U/ml penicillin and 100 μg/ml streptomycin, 2 mM L-glutamine, and blasticidin at 5 μg/ml as a selection marker (for the HRE-bla HCT116 cell line only).
# Cell proliferation experiments were carried out in 96-well tissue culture plates with seeding of 2000 cells/well in 100 μl of the relevant medium. Cells were subsequently incubated under the conditions mentioned for 24 h prior to addition of compounds.
# To determine the degree of inhibition of cell proliferation, cells were treated with ATPlite solution according to the manufacturer's instructions (PerkinElmer, ATPlite 1-step Luminescence ATP Detection Assay System) and luciferase readout measured on an Envision HTS multilabel plate reader (PerkinElmer) in luminescence mode according to established protocols. Raw data were imported into an ActivityBase database (IDBS, ID Business Solutions) and EC50 values calculated using the IDBS program ActivityBase XE.
SMILES,inhibition at 10 µM [1] [%],EC50 [2] [nM],EC50 [3] [nM]
"CCc1ccc(S(=O)(=O)Nc2cc(-c3ccc(C#N)s3)ccc2C)s1 [Example 1, 5-Ethyl-thiophene-2-sulfonic acid [5-(5-cyano-thiophen-2-yl)-2-methyl-phenyl]-amide]",20 to 50,< 500,< 500
"COc1ccc(S(=O)(=O)Nc2cc(-c3ccc(C#N)s3)ccc2C)cn1 [Example 2, 6-Methoxy-pyridine-3-sulfonic acid [5-(5-cyano-thiophen-2-yl)-2-methyl-phenyl]-amide]",< 20,< 500,< 500
